{"source": "paper PMC10281575", "about": "“PfCRT mutations conferring piperaquine resistance in falciparum malaria shape the kinetics of quinoline drug binding and transport” (PLOS Pathogens, 2023)", "target": "T1, PfCRT^Dd2 (Plasmodium falciparum, UniProt Q8IBZ9, A220S/I356T/K76T/M74I/N326S/N75E/Q271E/R371I)", "T1 sequence (Q8IBZ9 1-424 M74I/N75E/K76T/A220S/Q271E/N326S/I356T/R371I)": "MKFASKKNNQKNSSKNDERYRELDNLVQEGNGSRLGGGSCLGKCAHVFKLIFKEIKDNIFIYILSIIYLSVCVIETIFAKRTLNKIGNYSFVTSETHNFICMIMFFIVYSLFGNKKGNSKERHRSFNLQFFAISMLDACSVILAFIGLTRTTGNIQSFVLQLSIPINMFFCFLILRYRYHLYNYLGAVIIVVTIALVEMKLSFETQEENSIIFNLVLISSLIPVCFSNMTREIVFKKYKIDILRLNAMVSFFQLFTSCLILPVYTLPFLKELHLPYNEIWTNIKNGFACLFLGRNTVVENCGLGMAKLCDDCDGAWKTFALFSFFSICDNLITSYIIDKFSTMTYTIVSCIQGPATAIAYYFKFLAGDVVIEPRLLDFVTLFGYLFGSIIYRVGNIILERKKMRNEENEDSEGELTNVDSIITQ", "test": "Competition kinetics of drug transport (radiolabeled substrate plus cold inhibitor), PfCRT^Dd2-expressing oocytes", "format": "cell-based", "parameters": "expressed in transfected cells; host or cells: Xenopus laevis oocytes injected with in vitro transcribed RNA (pSP64T)", "conditions": "for PfCRTDd2-mediated CQ transport 500 µM CQ: single replicates; for Vmax, maximal velocity of drug transport: global fit; for β, partiality factor: factor on transport of the labeled drug by the other drug", "method": "The experimental procedure and the data analysis were as described above.\nThe difference between the two models lies in the value of α, a parameter describing how much the affinity for the substrate changes when the inhibitor is already bound, and vice versa. […] The resulting Vmax,app values and the Vmax,app/KM,app ratios were plotted as a function of the inhibitor concentration (Fig 5A).\nDrug transport assays were performed as previously described. Briefly, measurements of radiolabeled drug uptake were made over 1 h, unless otherwise specified. […] Where specified, one or more unlabeled drugs were also present at the indicated concentrations. […] The uptake assays were terminated by removing the oocytes from the reaction medium and washing them three times with 2 mL of ice-cold ND96 buffer. Each oocyte was transferred to a separate scintillation vial and lysed by the addition of 200 μL of a 5% SDS solution. The radioactivity in the sample was measured using a liquid scintillation analyser Tri-Carb 4910 TR (PerkinElmer). Water-injected oocytes were analyzed in parallel as a negative control. The buffer from each condition was measured in duplicate in parallel to each experiment to transform counts per minute into pmol of drug. Drug uptake attributable to PfCRT was determined by subtracting the background uptake from water-injected oocytes from that of PfCRT-expressing oocytes. In all cases, at least three independent experiments were performed on oocytes from different frogs, and for each condition in an experiment, measurements were made from 10 oocytes per treatment.\nThe following equations were adopted from Segel (1993), and the reader is referred to that text for the assumptions made in the author’s approach in the derivation of each equation [31]. The concentration of substrate is denoted as [S1] and the concentration of the inhibiting substrate is denoted as [S2]. KS1 and KS2 are the dissociation constants for the respective substrate-protein complexes.\nAnalyses of the kinetic data were performed using SigmaPlot version 13.0 and Python. The drug competition models were globally fit to the kinetic data using the least-squares method and ranked according to their corrected Akaike information criterion difference (ΔAICC) and their Akaike weight, using Python. The two top-ranked models were compared using an F-test.\nThis factor reflects how much the affinity of the transporter for one drug changes when the other drug is already bound in the protein cavity. In the former model, α > 0 and α ≠ 1. In the latter model, it could be thought of as if α = 1. Because of this, discriminating between the two models also means determining the value of α. In Mixed-type (Partial) inhibition, the apparent maximal velocity (Vmax,app) is given by Eq 22, Vmax,app=Vmax(1+β[S2]/αKS2)/(1+[S2]/αKS2) (Eq 22)\nVmax,app is the maximal rate of substrate transport at a certain inhibitor concentration. The half-maximal inhibitory concentration is given by the term in the denominator different from [S2], which in this case is αKS2. This means that by plotting Vmax,app as a function of [S2], the value of αKS2 can be derived after fitting the curve to Eq 23.\nThe half-maximal inhibitory concentration derived from this hyperbolic equation is equal to KS2. By plotting Vmax,app/KM,app as a function of [S2], one can derive KS2 after fitting the curve to Eq 25. The value of α can then be calculated dividing αKS2 by KS2.", "note": "Values joined by “and” are separate entries in the source; they are usually repeats but may differ in a detail not shown here. Equal entries are not always repeated. Where two headings read alike, the source gives them in different places."}
{"smiles": "CCN(CC)CCCC(C)Nc1ccnc2cc(Cl)ccc12", "note": "(stereo not shown) [CQ, chloroquine]", "values": [{"measurement": "PfCRTDd2-mediated CQ transport 500 µM CQ", "setting": "0 µM PPQ", "result": "25.01 pmol oocyte-1 h-1 and 21.69 pmol oocyte-1 h-1 and 19.19 pmol oocyte-1 h-1 and 20.87 pmol oocyte-1 h-1"}, {"measurement": "PfCRTDd2-mediated CQ transport 500 µM CQ", "setting": "50 µM PPQ", "result": "19.01 pmol oocyte-1 h-1 and 16.61 pmol oocyte-1 h-1 and 18.59 pmol oocyte-1 h-1"}, {"measurement": "PfCRTDd2-mediated CQ transport 500 µM CQ", "setting": "125 µM PPQ", "result": "18.10 pmol oocyte-1 h-1 and 16.11 pmol oocyte-1 h-1 and 15.06 pmol oocyte-1 h-1"}, {"measurement": "PfCRTDd2-mediated CQ transport 500 µM CQ", "setting": "200 µM PPQ", "result": "12.71 pmol oocyte-1 h-1 and 15.12 pmol oocyte-1 h-1 and 13.60 pmol oocyte-1 h-1"}, {"measurement": "PfCRTDd2-mediated CQ transport 500 µM CQ", "setting": "350 µM PPQ", "result": "12.41 pmol oocyte-1 h-1 and 14.97 pmol oocyte-1 h-1 and 10.99 pmol oocyte-1 h-1"}, {"measurement": "PfCRTDd2-mediated CQ transport 500 µM CQ", "setting": "500 µM PPQ", "result": "15.66 pmol oocyte-1 h-1 and 9.12 pmol oocyte-1 h-1 and 11.85 pmol oocyte-1 h-1"}, {"measurement": "most plausible inhibition model", "setting": "16 models, ΔAICC, Akaike weight, F-test, label = cold inhibitor of the other drug's transport", "result": "partial noncompetitive inhibition"}, {"measurement": "Vmax, maximal velocity of drug transport", "setting": "Mixed (Partial) model, drug as radiolabeled substrate", "result": "33 ± 1", "unit": "pmol oocyte^-1 h^-1"}, {"measurement": "Kd", "setting": "Mixed (Partial) model, drug as cold inhibitor, read-out: KS, dissociation constant for the PfCRT-substrate complex", "result": "210 ± 80", "unit": "µM"}, {"measurement": "Kd", "setting": "Mixed (Partial) model, drug as radiolabeled substrate, read-out: KS, dissociation constant for the PfCRT-substrate complex", "result": "260 ± 25", "unit": "µM"}, {"measurement": "β, partiality factor", "setting": "Mixed (Partial) model", "result": "0.38 ± 0.06"}, {"measurement": "α, KS interaction factor", "setting": "Mixed (Partial) model, label = radiolabeled substrate, other drug cold inhibitor", "result": "1.0 ± 0.2"}, {"measurement": "Vmax, maximal velocity of drug transport", "setting": "Noncompetitive (Partial) model, drug as radiolabeled substrate, other drug as cold inhibitor", "result": "32 pmol oocyte^-1 h^-1 and 32 ± 1 pmol oocyte^-1 h^-1"}, {"measurement": "Kd", "setting": "Noncompetitive (Partial) model, drug as cold inhibitor, read-out: KS, dissociation constant for the PfCRT-substrate complex", "result": "238 µM and 240 µM"}, {"measurement": "Kd", "setting": "Noncompetitive (Partial) model, drug as radiolabeled substrate, read-out: KS, dissociation constant for the PfCRT-substrate complex", "result": "254 µM and 250 µM"}, {"measurement": "β, partiality factor", "setting": "Noncompetitive (Partial) model", "result": "0.38 and 0.38 ± 0.04"}, {"measurement": "KMapp ([3H]CQ + PPQ)", "setting": "[PPQ] 0 µM", "result": 257.93, "unit": "µM"}, {"measurement": "Vmaxapp ([3H]CQ + PPQ)", "setting": "[PPQ] 0 µM", "result": 32.70, "unit": "pmol oocyte-1 h-1"}, {"measurement": "Vmaxapp/KMapp ([3H]CQ + PPQ)", "setting": "[PPQ] 0 µM", "result": 0.1268, "unit": "h⁻¹"}, {"measurement": "KMapp ([3H]CQ + PPQ)", "setting": "[PPQ] 50 µM", "result": 250.37, "unit": "µM"}, {"measurement": "Vmaxapp ([3H]CQ + PPQ)", "setting": "[PPQ] 50 µM", "result": 27.98, "unit": "pmol oocyte-1 h-1"}, {"measurement": "Vmaxapp/KMapp ([3H]CQ + PPQ)", "setting": "[PPQ] 50 µM", "result": 0.1117, "unit": "h⁻¹"}, {"measurement": "KMapp ([3H]CQ + PPQ)", "setting": "[PPQ] 125 µM", "result": 258.31, "unit": "µM"}, {"measurement": "Vmaxapp ([3H]CQ + PPQ)", "setting": "[PPQ] 125 µM", "result": 25.60, "unit": "pmol oocyte-1 h-1"}, {"measurement": "Vmaxapp/KMapp ([3H]CQ + PPQ)", "setting": "[PPQ] 125 µM", "result": 0.0991, "unit": "h⁻¹"}, {"measurement": "KMapp ([3H]CQ + PPQ)", "setting": "[PPQ] 200 µM", "result": 254.40, "unit": "µM"}, {"measurement": "Vmaxapp ([3H]CQ + PPQ)", "setting": "[PPQ] 200 µM", "result": 21.83, "unit": "pmol oocyte-1 h-1"}, {"measurement": "Vmaxapp/KMapp ([3H]CQ + PPQ)", "setting": "[PPQ] 200 µM", "result": 0.0858, "unit": "h⁻¹"}, {"measurement": "KMapp ([3H]CQ + PPQ)", "setting": "[PPQ] 350 µM", "result": 250.34, "unit": "µM"}, {"measurement": "Vmaxapp ([3H]CQ + PPQ)", "setting": "[PPQ] 350 µM", "result": 19.75, "unit": "pmol oocyte-1 h-1"}, {"measurement": "Vmaxapp/KMapp ([3H]CQ + PPQ)", "setting": "[PPQ] 350 µM", "result": 0.0789, "unit": "h⁻¹"}, {"measurement": "KMapp ([3H]CQ + PPQ)", "setting": "[PPQ] 500 µM", "result": 247.83, "unit": "µM"}, {"measurement": "Vmaxapp ([3H]CQ + PPQ)", "setting": "[PPQ] 500 µM", "result": 17.90, "unit": "pmol oocyte-1 h-1"}, {"measurement": "Vmaxapp/KMapp ([3H]CQ + PPQ)", "setting": "[PPQ] 500 µM", "result": 0.0722, "unit": "h⁻¹"}, {"measurement": "β^CQ, partiality factor", "setting": "fractional velocity plot, factor by which PPQ slows down CQ transport", "result": "0.35 ± 0.06"}, {"measurement": "Kd", "setting": "secondary plot, half-maximum inhibitory concentration of Vmax,app versus inhibitor concentration, read-out: αKS, dissociation constant between the drug and the PfCRT complex with the other drug", "result": "220 ± 85", "unit": "µM"}, {"measurement": "α (αKS divided by KS)", "setting": "secondary plots, label = prebound drug", "result": "1.0 ± 0.3"}]}
